# In publication PMC12000319, “Proton conductance by human uncoupling protein 1 is inhibited by purine and pyrimidine nucleotides” (The EMBO Journal, 2025):
# Where “and” joins values, the source holds several entries; their conditions need not be identical. Equal entries are not always repeated. Where two headings read alike, the source gives them in different places.
# Assays:
# UCP1 [1] = target: T1, UCP1 (Homo sapiens, UniProt P25874); experiment: Liposome reconstitution and proton conductance assay (pyranine fluorescence); format: biochemical; settings: UCP1 proteoliposomes, 200 µM oleic acid + 500 µM nucleotide, 2.5 µM valinomycin; single reconstitutions
# T1 construct: His8 (N, cleaved yes); Factor Xa protease cleavage site (N, cleaved yes); made in house; host or cells: Saccharomyces cerevisiae strain W303.1B
# T1 sequence (P25874 1-307): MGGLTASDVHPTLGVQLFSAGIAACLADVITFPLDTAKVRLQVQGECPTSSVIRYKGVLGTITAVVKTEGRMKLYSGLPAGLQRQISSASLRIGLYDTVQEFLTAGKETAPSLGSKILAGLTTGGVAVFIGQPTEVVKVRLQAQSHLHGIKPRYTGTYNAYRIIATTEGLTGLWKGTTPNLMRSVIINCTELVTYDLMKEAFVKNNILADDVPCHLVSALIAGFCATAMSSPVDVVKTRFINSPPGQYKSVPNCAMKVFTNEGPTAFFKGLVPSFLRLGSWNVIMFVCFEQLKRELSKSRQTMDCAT
# UCP1 [2] = target: T1, UCP1; experiment: Differential scanning fluorimetry (nanoDSF) thermal stability shift assay; format: binding
# UCP1 [3] = target: T1, UCP1; experiment: Isothermal titration calorimetry of nucleotide binding; set-up: isotherm data point (enthalpy change per injection): unit not given here; settings: for isotherm data point (enthalpy change per injection): representative isotherm;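 as to all read-outs here: purified human UCP1 in cacodylate buffer with lauryl maltose neopentyl glycol and cardiolipin, titrated with nucleotides, isotherms fitted by one-site model yielding ΔH, Kd and stoichiometry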
# human OGC (SLC25A11) = target: T2, human OGC (SLC25A11) (Homo sapiens, UniProt Q02978); experiment: Differential scanning fluorimetry (nanoDSF) thermal stability shift assay; format: binding; settings: 1 mM nucleotide, pH 6.0, single repeats (source data Fig. 4A)
# T2 construct: His8 (N, cleaved yes); Factor Xa protease cleavage site (N, cleaved yes); made in house; host or cells: Saccharomyces cerevisiae strain W303.1B
# T2 sequence (Q02978 1-314): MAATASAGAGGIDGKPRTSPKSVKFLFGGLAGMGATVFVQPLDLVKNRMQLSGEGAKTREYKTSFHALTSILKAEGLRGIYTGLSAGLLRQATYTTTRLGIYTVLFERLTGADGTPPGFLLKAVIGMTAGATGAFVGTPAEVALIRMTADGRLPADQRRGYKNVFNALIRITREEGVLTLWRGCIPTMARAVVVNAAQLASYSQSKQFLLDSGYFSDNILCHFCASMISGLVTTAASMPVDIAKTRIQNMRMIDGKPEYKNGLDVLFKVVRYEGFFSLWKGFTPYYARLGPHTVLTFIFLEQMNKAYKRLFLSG
# Text: UCP1 is phylogenetically related to mitochondrial dicarboxylate carriers, gaining thermogenic properties as a later evolutionary development (Hughes et al, [2009]; Robinson et al, [2008]). The mitochondrial dicarboxylate carrier (DIC, SLC25A10) and oxoglutarate carrier (OGC, SLC25A11) are most closely related to UCP1 (Gaudry et al, [2019]; Hughes et al, [2009]) and share many residues involved in nucleotide binding in UCP1, such as the arginine triplet at the contact points, R92 and Q85 (Jones et al, [2024]). Given the similarity of the central cavity of UCP1, OGC and DIC, we tested whether the dicarboxylate carriers have the ability to bind nucleotides. For this purpose, we purified human DIC and OGC, and tested whether nucleotides were able to generate a thermostability shift, as observed for their physiological substrates (Pyrihová et al, [2024]). However, all tested nucleotides caused a negligible shift with both DIC or OGC at all pH values tested between 6.0 and 8.0 (Fig. 4A; Appendix Fig. S5). Thus, despite having many residues in common (Fig. 4B–D), UCP1 has evolved to have a few specific residues that allow high-affinity binding of nucleotides without a strong selection for nucleobase.
# Differential scanning fluorimetry (nanoDSF) (Alexandrov et al, [2008]) was carried out with 2 µg UCP1, DIC or OGC protein (100 mM MES/HEPES, pH range 6.0–8.0, 25 mM NaCl, 1 mM TCEP, 0.01% lauryl maltose neopentyl glycol and 0.01 mg/mL tetraoleoyl cardiolipin) and, when required, 1 mM nucleotide, as indicated. The proteins have the following number of tryptophans: UCP1 (two); OGC (two); DIC (one). The samples were loaded into nanoDSF-grade standard glass capillaries. The temperature was increased by […] every minute from 25 to 95 °C, the intrinsic fluorescence was measured in a Prometheus NT.48 nanoDSF device, and the apparent Tm was calculated with the PR.ThermControl software (NanoTemper Technologies).
compound,measurement,setting,value
"Cc1cn([C@H]2C[C@H](O)[C@@H](COP(=O)(O)OP(=O)(O)OP(=O)(O)O)O2)c(=O)[nH]c1=O [dTTP, thymidine triphosphate]",Proton influx rate,UCP1 [1],84.11 nmol H+/min and 42.34 nmol H+/min and 68.93 nmol H+/min
same,difference in ΔTm versus GTP,"UCP1 [2]; 1 mM nucleotide, pH 6.0",2.7 °C
same,temperature shift (ΔTm),"UCP1 [2]; 1 mM nucleotide, pH 6.0, detergent-solubilised UCP1, mean of three biological repeats",18.9 °C
same,ΔTm at 1000 µM,"UCP1 [2]; pH 6, read-out: thermal shift (ΔTm), 1 mM nucleotide, pH 6.0, single repeats (source data Fig. 1D)",19 °C
same,ΔTm at 1000 µM,"UCP1 [2]; pH 6.5, read-out: thermal shift (ΔTm), 1 mM nucleotide, pH 6.5, single repeats (source data Fig. 1D)",14.8 °C
same,ΔTm at 1000 µM,"UCP1 [2]; pH 7, read-out: thermal shift (ΔTm), 1 mM nucleotide, pH 7.0, single repeats (source data Fig. 1D)",10.1 °C
same,ΔTm at 1000 µM,"UCP1 [2]; pH 7.5, read-out: thermal shift (ΔTm), 1 mM nucleotide, pH 7.5, single repeats (source data Fig. 1D)",4 °C
same,binding affinity to UCP1 (in words),UCP1 [3]; ITC,highest binding affinities
same,Kd,"UCP1 [3]; ITC, pH 6.0, 20 °C, mean ± standard deviation of three biological repeats (Fig. 2A-E)",1130 ± 90 nM
same,Kd,"UCP1 [3]; ITC, single biological repeats (source data Fig. 2F)",1240 nM and 1090 nM and 1070 nM
same,isotherm data point (enthalpy change per injection),"UCP1 [3]; Molar ratio (Nucleotide/UCP) 0.120417, pH 6.0, 20 °C",-22.0628
same,isotherm data point (enthalpy change per injection),"UCP1 [3]; Molar ratio (Nucleotide/UCP) 0.181226, pH 6.0, 20 °C",-22.1545
same,isotherm data point (enthalpy change per injection),"UCP1 [3]; Molar ratio (Nucleotide/UCP) 0.242439, pH 6.0, 20 °C",-21.2571
same,isotherm data point (enthalpy change per injection),"UCP1 [3]; Molar ratio (Nucleotide/UCP) 0.304059, pH 6.0, 20 °C",-20.8684
same,isotherm data point (enthalpy change per injection),"UCP1 [3]; Molar ratio (Nucleotide/UCP) 0.366087, pH 6.0, 20 °C",-22.682
same,isotherm data point (enthalpy change per injection),"UCP1 [3]; Molar ratio (Nucleotide/UCP) 0.428528, pH 6.0, 20 °C",-21.6485
same,isotherm data point (enthalpy change per injection),"UCP1 [3]; Molar ratio (Nucleotide/UCP) 0.491383, pH 6.0, 20 °C",-18.3951
same,isotherm data point (enthalpy change per injection),"UCP1 [3]; Molar ratio (Nucleotide/UCP) 0.554656, pH 6.0, 20 °C",-20.6625
same,isotherm data point (enthalpy change per injection),"UCP1 [3]; Molar ratio (Nucleotide/UCP) 0.618348, pH 6.0, 20 °C",-18.8854
same,isotherm data point (enthalpy change per injection),"UCP1 [3]; Molar ratio (Nucleotide/UCP) 0.682464, pH 6.0, 20 °C",-18.4581
same,isotherm data point (enthalpy change per injection),"UCP1 [3]; Molar ratio (Nucleotide/UCP) 0.747006, pH 6.0, 20 °C",-16.8767
same,isotherm data point (enthalpy change per injection),"UCP1 [3]; Molar ratio (Nucleotide/UCP) 0.811976, pH 6.0, 20 °C",-15.5439
same,isotherm data point (enthalpy change per injection),"UCP1 [3]; Molar ratio (Nucleotide/UCP) 0.877378, pH 6.0, 20 °C",-14.5814
same,isotherm data point (enthalpy change per injection),"UCP1 [3]; Molar ratio (Nucleotide/UCP) 0.943214, pH 6.0, 20 °C",-11.542
same,isotherm data point (enthalpy change per injection),"UCP1 [3]; Molar ratio (Nucleotide/UCP) 1.00949, pH 6.0, 20 °C",-9.131
same,isotherm data point (enthalpy change per injection),"UCP1 [3]; Molar ratio (Nucleotide/UCP) 1.0762, pH 6.0, 20 °C",-6.9461
same,isotherm data point (enthalpy change per injection),"UCP1 [3]; Molar ratio (Nucleotide/UCP) 1.14336, pH 6.0, 20 °C",-4.409
same,isotherm data point (enthalpy change per injection),"UCP1 [3]; Molar ratio (Nucleotide/UCP) 1.21096, pH 6.0, 20 °C",-2.755
same,isotherm data point (enthalpy change per injection),"UCP1 [3]; Molar ratio (Nucleotide/UCP) 1.27901, pH 6.0, 20 °C",-1.022
same,isotherm data point (enthalpy change per injection),"UCP1 [3]; Molar ratio (Nucleotide/UCP) 1.34751, pH 6.0, 20 °C",-0.7829
same,isotherm data point (enthalpy change per injection),"UCP1 [3]; Molar ratio (Nucleotide/UCP) 1.41647, pH 6.0, 20 °C",-1.325
same,isotherm data point (enthalpy change per injection),"UCP1 [3]; Molar ratio (Nucleotide/UCP) 1.48589, pH 6.0, 20 °C",-0.8361
same,isotherm data point (enthalpy change per injection),"UCP1 [3]; Molar ratio (Nucleotide/UCP) 1.55577, pH 6.0, 20 °C",0.501
same,isotherm data point (enthalpy change per injection),"UCP1 [3]; Molar ratio (Nucleotide/UCP) 1.62611, pH 6.0, 20 °C",0.6153
same,isotherm data point (enthalpy change per injection),"UCP1 [3]; Molar ratio (Nucleotide/UCP) 1.69692, pH 6.0, 20 °C",0.02513
same,isotherm data point (enthalpy change per injection),"UCP1 [3]; Molar ratio (Nucleotide/UCP) 1.76819, pH 6.0, 20 °C",-0.2521
same,isotherm data point (enthalpy change per injection),"UCP1 [3]; Molar ratio (Nucleotide/UCP) 1.83995, pH 6.0, 20 °C",0.8236
same,isotherm data point (enthalpy change per injection),"UCP1 [3]; Molar ratio (Nucleotide/UCP) 1.91217, pH 6.0, 20 °C",0.03383
same,isotherm data point (enthalpy change per injection),"UCP1 [3]; Molar ratio (Nucleotide/UCP) 1.98488, pH 6.0, 20 °C",0.2054
same,change in apparent melting temperature (ΔTm) of hOGC,human OGC (SLC25A11),0.5 and 0.3
